The record followed here is patent publication US20040010001A1, “Methods and compositions for modulating cell proliferation and cell death” (priority 1999, published 2004).

Counter-ions that a name gives are not always drawn. Like-named read-outs stand apart in the source and are kept apart here.

The test has as its system Human prostate PC3 tumor cells. Put plainly: aFGF/bFGF-induced resistance and reversal by suramin, sulforhodamine B assay. Type of test: cell-based. How it is done:
The experimental conditions are described briefly below. […] Cell number was measured using the sulforhodamine B assay which measures the total protein concentration. […] The FGF-induced resistance was dependent on the FGF concentrations, with a higher resistance at higher FGF concentrations.

Setting [1] is: Homo sapiens, read-out: IC50, Control (drug treatment only, without FGF treatment), No suramin, drug 96 hours.
[2] abbreviates: Homo sapiens, read-out: IC50, aFGF 0.3 ng/ml + bFGF 1 ng/ml, No suramin, FGF pretreatment 96 hours, drug 96 hours.
[3] abbreviates: Homo sapiens, read-out: IC50, aFGF 1 ng/ml + bFGF 3 ng/ml, No suramin, FGF pretreatment 96 hours, drug 96 hours.
[4] abbreviates: read-out: IC50, Control (without FGF treatment), Suramin, 15 μM, drug 96 hours with 15 μM suramin.
Setting [5] is: read-out: IC50, aFGF 0.3 ng/ml + bFGF 1 ng/ml, With suramin, FGF pretreatment 96 hours, drug 96 hours with 15 micromolar suramin.
Setting [6] is: read-out: IC50, aFGF 1 ng/ml + bFGF 3 ng/ml, With suramin, FGF pretreatment 96 hours, drug 96 hours with 15 micromolar suramin.
The mark [7] stands for this setting: no suramin, relative to control.
Where [8] appears, read: Homo sapiens, 96 h, read-out: IC50, Control (drug treatment only, without FGF treatment), No suramin.
[9] abbreviates: Homo sapiens, 96 h, read-out: IC50, aFGF 0.3 ng/ml + bFGF 1 ng/ml, No suramin.
Setting [10] is: Homo sapiens, 96 h, read-out: IC50, aFGF 1 ng/ml + bFGF 3 ng/ml, No suramin.
[11] abbreviates: read-out: IC50, Control (without FGF treatment), Suramin, 15 μM.
Setting [12] is: read-out: IC50, aFGF 0.3 ng/ml + bFGF 1 ng/ml, With suramin.
Setting [13] is: read-out: IC50, aFGF 1 ng/ml + bFGF 3 ng/ml, With suramin.
The mark [14] stands for this setting: read-out: IC50, Control (drug treatment only, without FGF treatment), No suramin, drug 96 hours.
Setting [15] is: read-out: IC50, aFGF 0.3 ng/ml + bFGF 1 ng/ml, No suramin, FGF pretreatment 96 hours, drug 96 hours.
Where [16] appears, read: read-out: IC50, aFGF 1 ng/ml + bFGF 3 ng/ml, No suramin, FGF pretreatment 96 hours, drug 96 hours.

For the compound `CO[C@@]12[C@H](COC(N)=O)C3=C(C(=O)C(C)=C(N)C3=O)N1C[C@@H]1N[C@@H]12` [Mitomycin C], the IC50 by setting is: under setting [1], 1.61 µM; under setting [2], 3.06 µM; under setting [3], 4.7 µM; under setting [4], 1.53 µM; under setting [5], 1.69 µM; under setting [6], 1.6 µM.

Consider `O=C1c2c(O)ccc(O)c2C(=O)c2c(NCCNCCO)ccc(NCCNCCO)c21` [Mitoxantrone], for which the IC50 under setting [1] was 0.18 µM, the IC50 under setting [2] is 0.33 µM, the IC50 under setting [3] amounted to 0.53 µM and the IC50 under setting [4] is 0.16 µM. Besides, the “Resistance, Folds, aFGF 0.3 ng/ml + bFGF 1 ng/ml” value under setting [7] was 1.83 Folds. The “Resistance, Folds, aFGF 1 ng/ml + bFGF 3 ng/ml” value under setting [7] amounted to 2.94 Folds.

For `O=C(O)CC(NC(=O)CP(=O)(O)O)C(=O)O` [PALA, N-Phosphoracetyl-L-Asparate], the “Resistance, Folds, aFGF 0.3 ng/ml + bFGF 1 ng/ml” value was 1.06 Folds and the “Resistance, Folds, aFGF 1 ng/ml + bFGF 3 ng/ml” value came out at 1.21 Folds. Moreover, the IC50 under setting [8] is 241 µM. Under setting [9], the IC50 came to 255 µM. The IC50 under setting [10] came out at 292 µM. Under setting [11], the IC50 is 249 µM. In addition, the IC50 under setting [12] was 236 µM. For the same compound, the IC50 under setting [13] is 201 µM.

Consider `OC[C@H]1O[C@@H](n2cnc3c2NC=NC[C@H]3O)C[C@@H]1O` [Pentostatin], for which the IC50 under setting [8] was 336 µM.

`O=C(CCBr)N1CCN(C(=O)CCBr)CC1` [Pipobroman]: the IC50 came out at 136 µM under setting [1]; 194 µM under setting [2]; 184 µM under setting [3]; 94 µM under setting [4]; 125 µM under setting [5]; 109 µM under setting [6]. Besides, the “Resistance, Folds, aFGF 0.3 ng/ml + bFGF 1 ng/ml” value under setting [7] was determined as 1.42 Folds. In addition, the “Resistance, Folds, aFGF 1 ng/ml + bFGF 3 ng/ml” value under setting [7] is on record as 1.35 Folds.

As for `NCCCNc1ccc2c3c(nn2CCNCCO)-c2c(O)ccc(O)c2C(=O)c13` [Piroxantrone Hydrochloride], the IC50 by setting is: under setting [1], 0.34 µM; under setting [2], 0.81 µM; under setting [3], 1.28 µM; under setting [4], 0.32 µM; under setting [5], 0.33 µM; under setting [6], 0.28 µM. In addition, the “Resistance, Folds, aFGF 0.3 ng/ml + bFGF 1 ng/ml” value under setting [7] worked out at 2.38 Folds. Under setting [7], the “Resistance, Folds, aFGF 1 ng/ml + bFGF 3 ng/ml” value is recorded as 3.77 Folds.

As for `NC(=O)c1[nH]nc([C@@H]2O[C@H](CO)[C@@H](O)[C@H]2O)c1O` [Pyrazofurin], the IC50 is, setting by setting: under setting [1], 3.38 µM; under setting [2], 4.07 µM; under setting [3], 11.1 µM; under setting [4], 3.83 µM; under setting [5], 3.65 µM; under setting [6], 3.8 µM. The “Resistance, Folds, aFGF 0.3 ng/ml + bFGF 1 ng/ml” value under setting [7] was determined as 1.20 Folds. Also, under setting [7], the “Resistance, Folds, aFGF 1 ng/ml + bFGF 3 ng/ml” value is given as 3.27 Folds.

Turning to `O=C1NC2(CCCCC2)C(=O)N1CCN(CCCl)CCCl` [Spiromustine], the “Resistance, Folds, aFGF 0.3 ng/ml + bFGF 1 ng/ml” value was 2.15 Folds and the “Resistance, Folds, aFGF 1 ng/ml + bFGF 3 ng/ml” value turned out to be 3.46 Folds. For the same compound, the IC50 under setting [8] came out at 25.3 µM. The IC50 under setting [9] was found to be 54.5 µM. Besides, the IC50 under setting [10] stood at 87.6 µM. In addition, under setting [11], the IC50 is 24.4 µM. The IC50 under setting [12] stood at 25.4 µM. For the same compound, under setting [13], the IC50 came out at 26.7 µM.

As to `CC(=O)O[C@@]12CO[C@@H]1C[C@H](O)[C@@]1(C)C(=O)[C@H](O)C3=C(C)[C@@H](OC(=O)[C@H](O)[C@@H](NC(=O)OC(C)(C)C)c4ccccc4)C[C@@](O)([C@@H](OC(=O)c4ccccc4)[C@H]21)C3(C)C` [Taxotere], the IC50 is 0.00229 µM under setting [1] and 0.00202 µM under setting [4].

Turning to `COc1cc([C@@H]2c3cc4c(cc3[C@@H](O[C@@H]3O[C@@H]5CO[C@@H](c6cccs6)O[C@H]5[C@H](O)[C@H]3O)[C@H]3COC(=O)[C@H]23)OCO4)cc(OC)c1O` [Teniposide], the IC50 is, setting by setting: under setting [1], 0.4 µM; under setting [2], 1.14 µM; under setting [3], 1.98 µM; under setting [4], 0.42 µM; under setting [5], 0.39 µM; under setting [6], 0.36 µM. Further, the “Resistance, Folds, aFGF 0.3 ng/ml + bFGF 1 ng/ml” value under setting [7] is 2.85 Folds. Further, the “Resistance, Folds, aFGF 1 ng/ml + bFGF 3 ng/ml” value under setting [7] is given as 4.95 Folds.

Take `S=P(N1CC1)(N1CC1)N1CC1` [Thiotepa]: the “Resistance, Folds, aFGF 0.3 ng/ml + bFGF 1 ng/ml” value was 4.96 Folds and the “Resistance, Folds, aFGF 1 ng/ml + bFGF 3 ng/ml” value turned out to be 8.61 Folds. Under setting [8], the IC50 stood at 3.85 µM. Moreover, the IC50 under setting [9] was 19.1 µM. Besides, under setting [10], the IC50 came out at 33.2 µM. Further, the IC50 under setting [11] is 4.07 µM. Also, the IC50 under setting [12] worked out at 4.09 µM. Further, the IC50 under setting [13] came to 4.17 µM.

On to `NC(=O)c1csc([C@@H]2O[C@H](CO)[C@@H](O)[C@H]2O)n1` [Tiazofurin], for which the IC50 stood at 7.5 µM under setting [1]; 14.6 µM under setting [2]; 19.2 µM under setting [3]; 7.9 µM under setting [4]; 7.25 µM under setting [5]; 6.15 µM under setting [6]. The “Resistance, Folds, aFGF 0.3 ng/ml + bFGF 1 ng/ml” value under setting [7] is 1.94 Folds. Under setting [7], the “Resistance, Folds, aFGF 1 ng/ml + bFGF 3 ng/ml” value is reported as 2.57 Folds.

As for `CC[C@@]1(O)C(=O)OCc2c1cc1n(c2=O)Cc2cc3c(CN(C)C)c(O)ccc3nc2-1` [Topotecan], the IC50 is, setting by setting: under setting [1], 0.0222 µM; under setting [2], 0.0311 µM; under setting [3], 0.0539 µM; under setting [4], 0.0217 µM; under setting [5], 0.0208 µM; under setting [6], 0.021 µM. For the same compound, under setting [7], the “Resistance, Folds, aFGF 0.3 ng/ml + bFGF 1 ng/ml” value amounted to 1.40 Folds. The “Resistance, Folds, aFGF 1 ng/ml + bFGF 3 ng/ml” value under setting [7] is 2.43 Folds.

On to `COc1cc(NCc2ccc3nc(N)nc(N)c3c2C)cc(OC)c1OC` [Trimetrexate], for which the IC50 runs as follows: under setting [1], 0.0336 µM; under setting [2], 0.054 µM; under setting [3], 0.0959 µM; under setting [4], 0.0331 µM; under setting [5], 0.0306 µM; under setting [6], 0.0289 µM. Further, the “Resistance, Folds, aFGF 0.3 ng/ml + bFGF 1 ng/ml” value under setting [7] was determined as 1.61 Folds. Further, the “Resistance, Folds, aFGF 1 ng/ml + bFGF 3 ng/ml” value under setting [7] is 2.85 Folds.

Turning to `Oc1ncc(N(CCCl)CCCl)c(O)n1` [Uracil Mustard], the “Resistance, Folds, aFGF 0.3 ng/ml + bFGF 1 ng/ml” value is given as 1.41 Folds and the “Resistance, Folds, aFGF 1 ng/ml + bFGF 3 ng/ml” value was 2.24 Folds. In addition, under setting [8], the IC50 came to 30 µM. Besides, the IC50 under setting [9] came out at 42.4 µM. In addition, the IC50 under setting [10] was determined as 67.1 µM. For the same compound, the IC50 under setting [11] amounted to 38.2 µM. Further, under setting [12], the IC50 was 37.6 µM. For the same compound, the IC50 under setting [13] stood at 34.6 µM.

As for `CC[C@]1(O)C[C@H]2CN(CCc3c([nH]c4ccccc34)[C@@](C(=O)OC)(c3cc4c(cc3OC)N(C=O)[C@H]3[C@@](O)(C(=O)OC)[C@H](OC(C)=O)[C@]5(CC)C=CCN6CC[C@]43[C@@H]65)C2)C1` [Vincristine], the IC50 under setting [1] came out at 0.00658 µM. Further, under setting [7], the “Resistance, Folds, aFGF 0.3 ng/ml + bFGF 1 ng/ml” value was found to be 4.00 Folds and the “Resistance, Folds, aFGF 1 ng/ml + bFGF 3 ng/ml” value stood at 6.77 Folds. The IC50 under setting [4] was determined as 0.00682 µM.

As for `CC[C@]1(O)C[C@@H]2CN(CCc3c([nH]c4ccccc34)[C@@](C(=O)OC)(c3cc4c(cc3OC)N(C)[C@H]3[C@@](O)(C(N)=O)[C@H](O)[C@]5(CC)C=CCN6CC[C@]43[C@@H]65)C2)C1` [Vindesine], the IC50 by setting is: under setting [1], 0.00039 µM; under setting [2], 0.00053 µM; under setting [3], 0.00082 µM; under setting [4], 0.00035 µM; under setting [5], 0.00037 µM; under setting [6], 0.00043 µM.

`CCC1=C[C@@H]2CN(C1)Cc1c([nH]c3ccccc13)[C@@](C(=O)OC)(c1cc3c(cc1OC)N(C)[C@H]1[C@@](O)(C(=O)OC)[C@H](OC(C)=O)[C@]4(CC)C=CCN5CC[C@]31[C@@H]54)C2` [Vinorelbin]: under setting [7], the “Resistance, Folds, aFGF 0.3 ng/ml + bFGF 1 ng/ml” value was 1.32 Folds. Moreover, under setting [7], the “Resistance, Folds, aFGF 1 ng/ml + bFGF 3 ng/ml” value was 2.26 Folds. Moreover, the IC50 amounted to 0.00399 µM under setting [14]; 0.00329 µM under setting [4]; 0.00525 µM under setting [15]; 0.0036 µM under setting [5]; 0.00901 µM under setting [16]; 0.00384 µM under setting [6].

In the case of Dihydrolenperone, the “Resistance, Folds, aFGF 0.3 ng/ml + bFGF 1 ng/ml” value under setting [7] is 1.81 Folds. Besides, the “Resistance, Folds, aFGF 1 ng/ml + bFGF 3 ng/ml” value under setting [7] is 3.37 Folds. For the same compound, the IC50 under setting [14] was found to be 24.6 µM; the IC50 under setting [4] is 28.1 µM; the IC50 under setting [15] came out at 44.5 µM; the IC50 under setting [5] was 26.1 µM; the IC50 under setting [16] came to 82.9 µM; the IC50 under setting [6] worked out at 23.9 µM.
